Data reported in publication PMC8698768, “The Effects of Sorbus aucuparia L. Fruit Extracts on Oxidative/Nitrative Modifications of Human Fibrinogen, Impact on Enzymatic Properties of Thrombin, and Hyaluronidase Activity In Vitro” (Antioxidants, 2021).

Assays:
[1] = target: T1, hyaluronidase from bovine testes type I-S (Bos taurus, UniProt F1MTV1); test: turbidimetric hyaluronidase inhibition assay; format: biochemical; conditions: substrate hyaluronic acid 0.03%, with bovine serum albumin 0.1%; per mL of the enzyme solution; read-out: IC50 (μg/mL) ^a
T1 construct: gene SPAM1; native commercial preparation from bovine testes (Sigma-Aldrich, type I-S)
T1 sequence (F1MTV1 36-553): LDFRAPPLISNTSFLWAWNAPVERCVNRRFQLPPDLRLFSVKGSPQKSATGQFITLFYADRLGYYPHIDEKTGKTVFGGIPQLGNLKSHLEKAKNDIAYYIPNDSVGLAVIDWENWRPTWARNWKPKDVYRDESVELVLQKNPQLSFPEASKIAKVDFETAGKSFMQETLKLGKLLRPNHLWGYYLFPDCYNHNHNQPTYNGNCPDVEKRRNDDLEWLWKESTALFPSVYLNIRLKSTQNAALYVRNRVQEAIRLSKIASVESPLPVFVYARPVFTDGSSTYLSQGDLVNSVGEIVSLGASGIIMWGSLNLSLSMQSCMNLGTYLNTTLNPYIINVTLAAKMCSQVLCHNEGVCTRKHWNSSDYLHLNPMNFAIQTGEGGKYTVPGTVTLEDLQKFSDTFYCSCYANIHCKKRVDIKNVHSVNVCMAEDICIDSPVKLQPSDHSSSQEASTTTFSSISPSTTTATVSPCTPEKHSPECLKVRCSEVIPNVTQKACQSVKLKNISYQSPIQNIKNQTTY
Source text: turbidimetric hyaluronidase inhibition assay on hyaluronidase from bovine testes type I-S

[2] = target: T2, thrombin (Bos taurus, UniProt P00735); test: chromogenic amidolytic assay (S-2238), […] nm; format: biochemical; conditions: read-out: % inhibition at 50 μg/mL
T2 construct: gene F2; Biomed Lublin thrombin is usually of bovine origin, human (P00734) not excluded

Compound	IC50 [1]	inhibition at 50 µg/mL [2]
O=C(/C=C/c1ccc(O)c(O)c1)O[C@@H]1C[C@](O)(C(=O)O)C[C@@H](O)[C@H]1O [CHA, chlorogenic acid]	> 339 µM	–
O=c1c(O[C@@H]2O[C@H](CO)[C@@H](O)[C@H](O)[C@H]2O)c(-c2ccc(O)c(O)c2)oc2cc(O)cc(O)c12 [IQ, isoquercitrin]	> 431 µM	–
Oc1cc(O)c2c(c1)O[C@H](c1ccc(O)c(O)c1)[C@H](O)[C@H]2c1c(O)cc(O)c2c1O[C@H](c1ccc(O)c(O)c1)[C@H](O)C2 [PB2, procyanidin B2]	> 207 µM	27%
O=c1c(O[C@@H]2O[C@H](CO)[C@@H](O)[C@H](O)[C@H]2O[C@@H]2O[C@H](CO)[C@@H](O)[C@H](O)[C@H]2O)c(-c2ccc(O)c(O)c2)oc2cc(O)cc(O)c12 [SQ, quercetin 3-O-β-sophoroside]	> 319 µM	–
